According to patent US11180474B2 (BRISTOL-MYERS SQUIBB COMPANY, priority 2016, dated 2021):

Assays:
human TLR8 = target: T1, human TLR8 (Homo sapiens, UniProt Q9NR97); test: TLR8 inhibition reporter assay (HEK-Blue cells, SEAP reporter, R848 stimulation); type: cell-based; conditions: HEK-Blue cells overexpressing human TLR8, R848 15.9 μM
T1 construct: host or cells: HEK-Blue cells
T1 sequence (Q9NR97 27-1041): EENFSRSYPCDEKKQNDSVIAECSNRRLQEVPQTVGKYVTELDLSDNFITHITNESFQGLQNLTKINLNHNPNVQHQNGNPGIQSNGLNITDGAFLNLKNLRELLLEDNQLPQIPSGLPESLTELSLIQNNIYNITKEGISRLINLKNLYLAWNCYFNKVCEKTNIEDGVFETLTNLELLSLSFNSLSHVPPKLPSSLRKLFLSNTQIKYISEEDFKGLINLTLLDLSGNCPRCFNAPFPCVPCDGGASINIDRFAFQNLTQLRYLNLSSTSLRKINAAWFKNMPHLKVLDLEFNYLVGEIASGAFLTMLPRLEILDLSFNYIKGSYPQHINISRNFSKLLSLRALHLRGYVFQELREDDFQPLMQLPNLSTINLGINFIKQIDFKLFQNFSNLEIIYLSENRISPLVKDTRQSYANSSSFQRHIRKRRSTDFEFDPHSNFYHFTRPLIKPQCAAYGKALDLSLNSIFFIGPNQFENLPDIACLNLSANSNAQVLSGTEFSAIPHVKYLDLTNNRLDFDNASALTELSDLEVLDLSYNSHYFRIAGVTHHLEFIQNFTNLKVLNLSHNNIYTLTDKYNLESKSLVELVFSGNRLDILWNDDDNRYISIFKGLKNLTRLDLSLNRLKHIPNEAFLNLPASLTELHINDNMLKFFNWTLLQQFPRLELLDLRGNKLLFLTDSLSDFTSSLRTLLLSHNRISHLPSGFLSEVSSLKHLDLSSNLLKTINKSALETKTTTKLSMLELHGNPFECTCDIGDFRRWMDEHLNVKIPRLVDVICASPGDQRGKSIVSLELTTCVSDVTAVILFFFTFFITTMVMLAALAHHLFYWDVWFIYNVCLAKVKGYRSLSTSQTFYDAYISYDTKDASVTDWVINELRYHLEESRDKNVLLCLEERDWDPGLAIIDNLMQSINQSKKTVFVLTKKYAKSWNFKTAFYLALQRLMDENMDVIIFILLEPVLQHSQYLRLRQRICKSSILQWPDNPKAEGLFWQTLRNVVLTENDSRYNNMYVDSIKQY
Description: TLR7/8/9 Inhibition Reporter Assays
Briefly, cells are seeded into Greiner 384 well plates (15000 cells per well for TLR7, 20,000 for TLR8 and 25,000 for TLR9) and then treated with test compounds in DMSO to yield a final dose response concentration range of 0.05 nM-50 μM. […] After a 22 hour incubation at 37° C., 5% CO2, SEAP levels are determined with the addition of HEK-Blue™ Detection reagent (Invivogen), a cell culture medium that allows for detection of SEAP, according to manufacturer's specifications. The percent inhibition is determined as the % reduction in the HEK-Blue signal present in wells treated with agonist plus DMSO alone compared to wells treated with a known inhibitor.

human TLR9 = target: T2, human TLR9 (Homo sapiens, UniProt Q9NR96); test: TLR9 inhibition reporter assay (HEK-Blue cells, SEAP reporter, ODN2006 stimulation); type: cell-based; conditions: HEK-Blue cells overexpressing human TLR9, ODN2006 5 nM
T2 construct: host or cells: HEK-Blue cells
T2 sequence (Q9NR96 26-1032): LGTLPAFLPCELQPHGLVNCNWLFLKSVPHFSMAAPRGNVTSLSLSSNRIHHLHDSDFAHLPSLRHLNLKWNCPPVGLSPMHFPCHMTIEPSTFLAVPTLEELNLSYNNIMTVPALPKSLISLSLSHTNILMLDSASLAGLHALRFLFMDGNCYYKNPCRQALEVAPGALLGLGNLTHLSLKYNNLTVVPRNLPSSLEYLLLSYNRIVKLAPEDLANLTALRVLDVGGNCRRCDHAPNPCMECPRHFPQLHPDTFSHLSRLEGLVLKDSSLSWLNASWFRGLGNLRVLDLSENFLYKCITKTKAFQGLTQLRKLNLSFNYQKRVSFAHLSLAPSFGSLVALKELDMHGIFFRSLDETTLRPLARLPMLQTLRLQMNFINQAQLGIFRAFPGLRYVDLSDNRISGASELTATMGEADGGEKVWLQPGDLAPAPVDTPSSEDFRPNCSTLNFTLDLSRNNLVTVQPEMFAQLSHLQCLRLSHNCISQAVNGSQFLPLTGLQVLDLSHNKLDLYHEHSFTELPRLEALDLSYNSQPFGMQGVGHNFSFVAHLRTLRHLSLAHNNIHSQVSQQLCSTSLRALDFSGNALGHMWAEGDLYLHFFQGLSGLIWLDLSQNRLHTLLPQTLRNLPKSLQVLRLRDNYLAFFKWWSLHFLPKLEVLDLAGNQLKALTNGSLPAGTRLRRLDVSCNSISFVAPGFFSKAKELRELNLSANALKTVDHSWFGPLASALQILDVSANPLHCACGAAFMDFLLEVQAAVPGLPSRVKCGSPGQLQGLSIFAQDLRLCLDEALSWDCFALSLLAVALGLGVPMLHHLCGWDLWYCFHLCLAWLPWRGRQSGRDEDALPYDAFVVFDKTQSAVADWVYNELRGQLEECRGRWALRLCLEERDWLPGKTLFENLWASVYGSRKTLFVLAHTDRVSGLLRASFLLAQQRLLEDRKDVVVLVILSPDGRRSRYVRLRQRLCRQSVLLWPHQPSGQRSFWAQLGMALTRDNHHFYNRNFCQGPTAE
In short: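 Human TLR7/8/9 HEK-Blue reporter lines; dose range 0.05 nM–50 μM; 30 min RT preincubation; stimulus gardiquimod 7.5 μM / R848 15.9 μM / ODN2006 5 nM respectively; 22 h, 37 °C; SEAP detected colorimetrically.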

Structure (SMILES)	IC50 (human TLR8) [nM]	IC50 (human TLR9) [nM]
COc1ccc(-c2[nH]c3ccc(C4CCN(C(=O)CNCC(C)(C)CO)CC4)cc3c2C(C)C)cc1OC [Example 219, 1-(4-(2-(3,4-dimethoxyphenyl)-3-isopropyl-1H-indol-5-yl)piperidin-1-yl)-2-((3-hydroxy-2,2-dimethylpropyl)amino)ethan-1-one]	39	2100
CCc1c(-c2ccc(OC)c(OC)c2)[nH]c2ccc(C3CCN(C4CCN(Cc5ccsc5)CC4)CC3)cc12 [Example 142, 2-(3,4-dimethoxyphenyl)-3-ethyl-5-(1′-(thiophen-3-ylmethyl)-[1,4′-bipiperidin]-4-yl)-1H-indole]	101	133
CCc1c(-c2ccc(OC)c(OC)c2)[nH]c2ccc(C3CCN(C4CCN(Cc5ccccc5)CC4)CC3)cc12 [Example 147, 5-(1′-benzyl-[1,4′-bipiperidin]-4-yl)-2-(3,4-dimethoxyphenyl)-3-ethyl-1H-indole]	101	552
CCc1c(-c2ccc(OC)c(OC)c2)[nH]c2ccc(C3CCN(C4CCN(Cc5ccc(C)s5)CC4)CC3)cc12 [Example 140, 2-(3,4-dimethoxyphenyl)-3-ethyl-5-(1′-((5-methylthiophen-2-yl)methyl)-[1,4′-bipiperidin]-4-yl)-1H-indole]	240	479
COc1ccc(-c2[nH]c3ccc(C4CCN(C(=O)CNC5(CO)CCCC5)CC4)cc3c2C(C)C)cc1OC [Example 213, 1-(4-(2-(3,4-dimethoxyphenyl)-3-isopropyl-1H-indol-5-yl)piperidin-1-yl)-2-((1-(hydroxymethyl)cyclopentyl)amino)ethan-1-one]	18	2070
CCc1c(-c2ccc(OC)c(OC)c2)[nH]c2c(F)cc(C3CCN(C4CCN(CC(C)C)CC4)CC3)cc12 [Example 190, 2-(3,4-dimethoxyphenyl)-3-ethyl-7-fluoro-5-(1′-isobutyl-[1,4′-bipiperidin]-4-yl)-1H-indole]	1760	280
CCc1c(-c2ccc(OC)c(OC)c2)[nH]c2ccc(C3CCN(C4CCN(Cc5cc(C)n[nH]5)CC4)CC3)cc12 [Example 131, 2-(3,4-dimethoxyphenyl)-3-ethyl-5-(1′-((3-methyl-1H-pyrazol-5-yl)methyl)-[1,4′-bipiperidin]-4-yl)-1H-indole]	56	447

Continued, values first:

IC50 (human TLR8) [nM]	IC50 (human TLR9) [nM]	Structure (SMILES)
194	260	CCc1c(-c2ccc(OC)c(OC)c2)[nH]c2cc(OC)c(C3CCN(C4CCN(C(C)C)CC4)CC3)cc12 [Example 192, 2-(3,4-dimethoxyphenyl)-3-ethyl-5-(1′-isopropyl-[1,4′-bipiperidin]-4-yl)-6-methoxy-1H-indole]
17	650	COc1ccc(-c2[nH]c3ccc(C4CCN(C5CCN(C(C)C)CC5)CC4)cc3c2C(C)C)cc1OC [Example 201, 2-(3,4-dimethoxyphenyl)-3-isopropyl-5-(1′-isopropyl-[1,4′-bipiperidin]-4-yl)-1H-indole]
1360	2340	CCc1c(-c2ccc(OC)c(OC)c2)[nH]c2ccc(C3CCN(C4CCN(C)CC4)CC3)cc12 [Example 150, 2-(3,4-dimethoxyphenyl)-3-ethyl-5-(1′-methyl-[1,4′-bipiperidin]-4-yl)-1H-indole]
150	170	CCc1c(-c2ccc(OC)c(OC)c2)[nH]c2ccc(C3CCN(C4CCN(CC(C)C)CC4)CC3)cc12 [Example 123, 2-(3,4-dimethoxyphenyl)-3-ethyl-5-(1′-isobutyl-[1,4′-bipiperidin]-4-yl)-1H-indole-di-trifluoroacetic acid]
14500	1000	COc1ccc(-c2[nH]c3cc(C)c(C4CCN(C5CCN(C(C)C)CC5)CC4)cc3c2C(C)C)cc1OC [Example 206, 2-(3,4-dimethoxyphenyl)-3-isopropyl-5-(1′-isopropyl-[1,4′-bipiperidin]-4-yl)-6-methyl-1H-indole di trifluoroacetic acid]
